Patent publication US5935928A, “Modified platelet factor-4” (Eli Lilly and Company, priority 1996, dated 1999)
Positions of bridges follow the written chain, without caps; N, C: chain ends. Chains are numbered I, II in the order given. No end group written: not given here.

Test: Heparin-affinity chromatography (heparin binding)
Details: heparin-sepharose; eluted in high-affinity fraction 0.7M to 2.0M NaCl
From the text: The eluted proteins are then contacted with a heparin affinity resin. The ordinarily skilled artisan will readily realize that this step is best achieved in a column chromatography mode. Heparin affinity columns are commercially available from some of the same vendors mentioned above. In this step, the molecules of interest, both MPF-4 or CPF-4, bind to the heparin column and are eluted using an increasing linear salt gradient. The preferred salt is NaCl, and the portion of the gradient that is preferably collected is the 0.1-2.0M portion. The more highly preferred portion of the gradient to collect is the 0.7-2.0M portion.
The C4-pool was further fractionated by heparin affinity chromatography on a Econo-pac™ 5 ml heparin-sepharose cartridge (BioRad, Richmond, Calif. 94804). The bound proteins were eluted by a linear gradient of 0 to 2.0M NaCl in phosphate buffer saline (PBS) at a flow rate of 2.0 ml/min. The proteins that eluted from the column were pooled into three fractions: (1) non-heparin binding (flow through), (2) low-affinity heparin binding (0 to 0.7M NaCl), and (3) high-affinity heparin binding (0.7M to 2.0M NaCl) fractions.
The high affinity heparin binding fraction (3) (0.7M to 2.0M NaCl) was applied to a Vydac™ 0.46×10 cm C-4 HPLC column (The Marshall Co.; Worthington, Ohio 43085), previously equilibrated with 27% acetonitrile, 0.1% TFA. […]

heparin binding	Molecule
bind heparin	MPF-4: Naturally-occurring 54 amino acid protein (SEQ ID NO:1), homologous with the 54 C-terminal residues of PF-4, beginning with Ser-17 (SQVRPRHITSLEVIKAGPHCPTAQLIATLKNGRKICLDLQAPLYKKIIKKLLES)
bind heparin	CPF-4: Proteolytically cleaved, non-reduced PF-4: 16 amino acid chain (SEQ ID NO:2) disulfide bonded to the 54 amino acid chain of MPF-4 (protein, disulfide I:10-II:20, I:12-II:36; not fully specified) chain 1: EAEEDGDLQCLCVKTT chain 2: SQVRPRHITSLEVIKAGPHCPTAQLIATLKNGRKICLDLQAPLYKKIIKKLLES
